Experimental data as given in ChEMBL document CHEMBL1201862, “PubChem BioAssay data set” (2004).
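Five compound concentrations were applied to cells in 96-well plates for 48 hours; endpoints were derived by simple linear interpolation of the resulting dose-response curve. Here, GI50 denotes the concentration required for 50% inhibition of growth.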 Active and inactive are the calls of the source. Rule as the data show it: active = GI50 up to about 1.1 µM and inactive = higher.

Experiments:
Assay in all cases: NCI tumour cell line growth inhibition, 48 h
A498 = tested on: A498
COLO 205 = tested on: COLO 205
HCT-116 = tested on: HCT-116
HOP-92 = tested on: HOP-92
HT-29 = tested on: HT-29
IGROV-1 = tested on: IGROV-1
KM12 = tested on: KM12
MCF7 = tested on: MCF7
NCI-H226 = tested on: NCI-H226
NCI/ADR-RES = tested on: NCI/ADR-RES
PC-3 = tested on: PC-3
RXF 393 = tested on: RXF 393
SF-268 = tested on: SF-268
SF-295 = tested on: SF-295
SK-MEL-28 = tested on: SK-MEL-28
SW-620 = tested on: SW-620
UACC-62 = tested on: UACC-62
UO-31 = tested on: UO-31
M14 = tested on: M14
MOLT-4 = tested on: MOLT-4

Measured: GI50

CCCCCC(=O)OCC1(CO)C/C(=C/CC(C(C)C)C(C)C)C(=O)O1 (centres undefined)
inactive: A498 > 75 µM | COLO 205 26.5 µM | HCT-116 27.7 µM | HOP-92 27 µM | HT-29 38.6 µM | IGROV-1 17.8 µM | KM12 13.5 µM | MCF7 40.9 µM | NCI-H226 > 75 µM | NCI/ADR-RES > 75 µM | PC-3 63.5 µM | RXF 393 > 75 µM | SF-268 > 75 µM | SF-295 51.1 µM | SK-MEL-28 > 75 µM | SW-620 25.2 µM | UACC-62 > 75 µM | UO-31 17.2 µM

CCOc1cc(-c2nc3ccccn3c2/N=C/c2cc([N+](=O)[O-])cc([N+](=O)[O-])c2O)ccc1O
inactive: A498 > 100 µM | COLO 205 > 100 µM | HCT-116 > 100 µM | HOP-92 > 100 µM | HT-29 > 100 µM | IGROV-1 > 100 µM | KM12 > 100 µM | M14 > 100 µM | MCF7 > 100 µM | MOLT-4 > 100 µM | NCI/ADR-RES > 100 µM | PC-3 > 100 µM | RXF 393 > 100 µM | SF-268 > 100 µM | SF-295 > 100 µM | SK-MEL-28 > 100 µM | SW-620 > 100 µM | UACC-62 > 100 µM | UO-31 > 100 µM

CC1=CC(=O)/C(=C/N2CCNC2=S)C(=O)O1
inactive: A498 > 100 µM | COLO 205 > 100 µM | HCT-116 > 100 µM | HOP-92 > 100 µM | HT-29 > 100 µM | IGROV-1 > 100 µM | KM12 > 100 µM | M14 > 100 µM | MCF7 > 100 µM | MOLT-4 > 100 µM | NCI-H226 > 100 µM | NCI/ADR-RES > 100 µM | PC-3 > 100 µM | RXF 393 > 100 µM | SF-268 > 100 µM | SF-295 > 100 µM | SW-620 > 100 µM | UACC-62 > 100 µM | UO-31 > 100 µM

CC(C)(C)C1=C(Br)C(Br)(C(C)(C)C)OP1(=O)c1ccccc1 (centres undefined)
inactive: A498 > 100 µM | COLO 205 > 100 µM | HCT-116 > 100 µM | HOP-92 > 100 µM | HT-29 > 100 µM | IGROV-1 > 100 µM | KM12 > 100 µM | M14 > 100 µM | MCF7 > 100 µM | NCI/ADR-RES > 100 µM | PC-3 > 100 µM | RXF 393 > 100 µM | SF-268 > 100 µM | SF-295 > 100 µM | SK-MEL-28 > 100 µM | SW-620 > 100 µM | UACC-62 > 100 µM | UO-31 > 100 µM

O=C1CCCC[C@H]1C(O)CC1CC(=O)N(c2ccccc2)C(=O)C1 (some centres undefined)
inactive: A498 > 100 µM | HCT-116 > 100 µM | HOP-92 > 100 µM | HT-29 > 100 µM | IGROV-1 > 100 µM | KM12 > 100 µM | M14 > 100 µM | MCF7 > 100 µM | MOLT-4 > 100 µM | NCI-H226 > 100 µM | NCI/ADR-RES > 100 µM | PC-3 > 100 µM | RXF 393 > 100 µM | SF-268 > 100 µM | SF-295 > 100 µM | SK-MEL-28 > 100 µM | SW-620 > 100 µM | UACC-62 > 100 µM | UO-31 > 100 µM

Cc1ccc(NC(=O)/C(=N/N(C)C)C(C2OC(=O)c3ccccc32)[N+](=O)[O-])cc1 (centres undefined)
inactive: A498 > 100 µM | HCT-116 > 100 µM | HOP-92 > 100 µM | HT-29 > 100 µM | KM12 > 100 µM | M14 > 100 µM | MCF7 > 100 µM | MOLT-4 > 100 µM | NCI-H226 > 100 µM | NCI/ADR-RES > 100 µM | PC-3 > 100 µM | RXF 393 > 100 µM | SF-268 > 100 µM | SF-295 > 100 µM | SK-MEL-28 > 100 µM | SW-620 > 100 µM | UACC-62 > 100 µM | UO-31 > 100 µM

CC(CC(=O)O)(CC(=O)O)c1ccccc1
inactive: A498 > 100 µM | COLO 205 > 100 µM | HCT-116 > 100 µM | HOP-92 > 100 µM | HT-29 > 100 µM | IGROV-1 > 100 µM | KM12 > 100 µM | M14 > 100 µM | MCF7 > 100 µM | NCI-H226 > 100 µM | NCI/ADR-RES > 100 µM | PC-3 > 100 µM | RXF 393 > 100 µM | SF-268 > 100 µM | SF-295 > 100 µM | SK-MEL-28 > 100 µM | SW-620 > 100 µM | UACC-62 > 100 µM | UO-31 > 100 µM

CC(=O)OC1(C)C=CC(=O)C=C1
inactive: A498 31.6 µM | COLO 205 > 100 µM | HCT-116 80.2 µM | HOP-92 39 µM | HT-29 63.5 µM | IGROV-1 12.9 µM | KM12 > 100 µM | M14 32.6 µM | MCF7 20.4 µM | MOLT-4 30.3 µM | NCI-H226 26.2 µM | NCI/ADR-RES 6.3 µM | PC-3 27.4 µM | SF-268 31 µM | SF-295 37.2 µM | SK-MEL-28 23.6 µM | SW-620 60.4 µM | UACC-62 17.1 µM | UO-31 23.9 µM
